Reference: ChEMBL document CHEMBL1201862, “PubChem BioAssay data set” (2004)
Calls of active or inactive are those of the source. No rule for the calls is given here.

Experiments:
[1] = target: T1, Mitochondrial peptide methionine sulfoxide reductase (Bos taurus, UniProt P54149); experiment: Absorbance-based biochemical high throughput dose response assay for activators of Methionine sulfoxide reductase A (MsrA).; type: functional
T1 sequence (P54149 whole entry): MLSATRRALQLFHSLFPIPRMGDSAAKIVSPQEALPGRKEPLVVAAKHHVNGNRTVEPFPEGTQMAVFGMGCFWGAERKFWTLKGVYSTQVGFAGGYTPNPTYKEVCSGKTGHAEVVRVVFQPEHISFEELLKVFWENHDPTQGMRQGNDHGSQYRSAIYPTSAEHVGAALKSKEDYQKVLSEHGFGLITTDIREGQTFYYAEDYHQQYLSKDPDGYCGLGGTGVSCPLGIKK

Caspase-6 = target: T2, Caspase-6 (Homo sapiens, UniProt P55212); experiment: inhibition of CASP6 peptide cleavage – biochemical, VEID-R110 fluorescence, cherry-pick, dose response (AID 720632)
T2 sequence (P55212 whole entry): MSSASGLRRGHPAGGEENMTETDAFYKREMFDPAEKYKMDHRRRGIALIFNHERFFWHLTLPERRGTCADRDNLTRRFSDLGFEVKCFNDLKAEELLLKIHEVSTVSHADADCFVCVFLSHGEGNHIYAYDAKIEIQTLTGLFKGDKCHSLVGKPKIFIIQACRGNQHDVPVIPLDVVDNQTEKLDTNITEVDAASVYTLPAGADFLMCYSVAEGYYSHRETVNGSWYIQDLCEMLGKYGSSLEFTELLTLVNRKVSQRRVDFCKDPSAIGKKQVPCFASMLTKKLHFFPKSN

[2] = target: Dual specificity tyrosine-phosphorylation-regulated kinase 1A (Homo sapiens, UniProt Q13627); type: functional;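 also: measured against DYRK1A as one member of a broad kinome profiling panel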
[3] = target: Casein kinase I isoform alpha (Homo sapiens, UniProt P48729); type: functional
[4] = target: BDNF/NT-3 growth factors receptor (Homo sapiens, UniProt Q16620); type: functional;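 also: NTRK2 measured as one member of a broad kinome-wide kinase profiling panel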
[5] = target: T3, Mitogen-activated protein kinase kinase kinase kinase 2 (Homo sapiens, UniProt Q12851); type: functional;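 also: measured as one member of a kinome-wide kinase panel, with MAP4K2 as the panel entry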
T3 sequence (Q12851 whole entry): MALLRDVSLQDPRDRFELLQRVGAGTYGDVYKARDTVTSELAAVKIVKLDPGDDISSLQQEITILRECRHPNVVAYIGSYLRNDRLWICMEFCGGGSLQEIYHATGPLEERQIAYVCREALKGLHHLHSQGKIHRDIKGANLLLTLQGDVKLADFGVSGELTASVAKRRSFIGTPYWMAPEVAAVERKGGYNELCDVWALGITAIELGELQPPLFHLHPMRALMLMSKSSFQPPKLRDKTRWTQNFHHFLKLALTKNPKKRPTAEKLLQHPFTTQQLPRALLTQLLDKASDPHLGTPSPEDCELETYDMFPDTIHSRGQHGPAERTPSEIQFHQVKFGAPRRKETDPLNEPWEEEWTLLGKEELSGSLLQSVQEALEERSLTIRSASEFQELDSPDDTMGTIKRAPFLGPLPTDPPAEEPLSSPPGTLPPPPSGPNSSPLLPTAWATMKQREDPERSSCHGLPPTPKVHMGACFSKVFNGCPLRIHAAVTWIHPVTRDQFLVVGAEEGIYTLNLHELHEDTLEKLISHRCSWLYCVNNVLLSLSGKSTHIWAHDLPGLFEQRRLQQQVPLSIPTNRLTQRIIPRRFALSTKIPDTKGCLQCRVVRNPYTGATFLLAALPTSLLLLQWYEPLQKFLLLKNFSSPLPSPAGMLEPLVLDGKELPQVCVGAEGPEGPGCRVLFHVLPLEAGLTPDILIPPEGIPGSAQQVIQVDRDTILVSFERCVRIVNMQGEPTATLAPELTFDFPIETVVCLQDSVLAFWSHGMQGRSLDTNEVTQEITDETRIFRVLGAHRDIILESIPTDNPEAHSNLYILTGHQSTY

[6] = target: Cyclin-dependent kinase 8 (Homo sapiens, UniProt P49336); experiment: Navigating the Kinome. Panel member name: CDK8; type: functional
[7] = target: Dual specificity mitogen-activated protein kinase kinase 2 (Homo sapiens, UniProt P36507); experiment: Navigating the Kinome. Panel member name: MAP2K2; type: functional
[8] = target: cAMP-dependent protein kinase catalytic subunit alpha (Homo sapiens, UniProt P17612); type: functional
[9] = target: Mitogen-activated protein kinase kinase kinase kinase 4 (Homo sapiens, UniProt O95819); type: functional
[10] = target: 5'-AMP-activated protein kinase catalytic subunit alpha-1 (Homo sapiens, UniProt Q13131); type: functional
[11] = target: T4, cAMP-dependent protein kinase catalytic subunit PRKX (Homo sapiens, UniProt P51817); type: functional
T4 sequence (P51817 whole entry): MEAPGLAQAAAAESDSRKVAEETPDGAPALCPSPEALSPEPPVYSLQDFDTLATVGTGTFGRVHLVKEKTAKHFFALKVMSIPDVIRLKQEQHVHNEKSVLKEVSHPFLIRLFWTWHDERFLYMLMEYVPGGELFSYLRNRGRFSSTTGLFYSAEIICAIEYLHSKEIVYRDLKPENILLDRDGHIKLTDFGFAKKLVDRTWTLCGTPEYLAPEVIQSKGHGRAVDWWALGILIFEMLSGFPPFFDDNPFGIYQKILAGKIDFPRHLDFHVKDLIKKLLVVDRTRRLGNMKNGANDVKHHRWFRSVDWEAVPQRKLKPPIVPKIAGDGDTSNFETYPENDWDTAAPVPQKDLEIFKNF

Activin receptor type-1 = target: T5, Activin receptor type-1 (Homo sapiens, UniProt Q04771); experiment: Navigating the Kinome. Panel member name: ACVR1; type: functional
T5 sequence (Q04771 whole entry): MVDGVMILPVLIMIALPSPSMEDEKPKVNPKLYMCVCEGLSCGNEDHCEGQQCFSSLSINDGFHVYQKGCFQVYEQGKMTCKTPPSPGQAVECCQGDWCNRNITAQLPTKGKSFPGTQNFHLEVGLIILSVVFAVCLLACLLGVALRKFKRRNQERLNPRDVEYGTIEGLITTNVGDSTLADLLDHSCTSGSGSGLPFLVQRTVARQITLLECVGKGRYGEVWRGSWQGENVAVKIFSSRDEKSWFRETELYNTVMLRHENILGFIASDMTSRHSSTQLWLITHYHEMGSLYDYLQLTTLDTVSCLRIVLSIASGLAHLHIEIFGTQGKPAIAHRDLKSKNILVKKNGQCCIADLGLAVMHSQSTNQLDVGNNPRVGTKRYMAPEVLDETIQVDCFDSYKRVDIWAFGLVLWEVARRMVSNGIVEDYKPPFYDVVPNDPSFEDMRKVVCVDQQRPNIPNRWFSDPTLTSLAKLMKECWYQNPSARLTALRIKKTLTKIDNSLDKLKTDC

[12] = target: Dual specificity mitogen-activated protein kinase kinase 1 (Homo sapiens, UniProt Q02750); experiment: Navigating the Kinome. Panel member name: MAP2K1; type: functional
Chain of Dual specificity mitogen-activated protein kinase kinase 1 (Q02750 whole entry): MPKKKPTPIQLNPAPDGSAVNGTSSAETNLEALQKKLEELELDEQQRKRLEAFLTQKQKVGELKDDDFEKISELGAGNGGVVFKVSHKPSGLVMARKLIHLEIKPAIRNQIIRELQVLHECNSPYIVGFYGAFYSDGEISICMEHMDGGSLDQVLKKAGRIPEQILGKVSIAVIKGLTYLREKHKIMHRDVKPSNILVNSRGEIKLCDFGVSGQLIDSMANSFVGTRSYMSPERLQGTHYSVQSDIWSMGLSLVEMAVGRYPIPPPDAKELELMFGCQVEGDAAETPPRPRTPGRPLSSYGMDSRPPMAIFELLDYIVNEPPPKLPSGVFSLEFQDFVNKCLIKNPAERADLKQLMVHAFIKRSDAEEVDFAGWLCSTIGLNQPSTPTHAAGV

Chain of 5'-AMP-activated protein kinase catalytic subunit alpha-1 (Q13131 whole entry): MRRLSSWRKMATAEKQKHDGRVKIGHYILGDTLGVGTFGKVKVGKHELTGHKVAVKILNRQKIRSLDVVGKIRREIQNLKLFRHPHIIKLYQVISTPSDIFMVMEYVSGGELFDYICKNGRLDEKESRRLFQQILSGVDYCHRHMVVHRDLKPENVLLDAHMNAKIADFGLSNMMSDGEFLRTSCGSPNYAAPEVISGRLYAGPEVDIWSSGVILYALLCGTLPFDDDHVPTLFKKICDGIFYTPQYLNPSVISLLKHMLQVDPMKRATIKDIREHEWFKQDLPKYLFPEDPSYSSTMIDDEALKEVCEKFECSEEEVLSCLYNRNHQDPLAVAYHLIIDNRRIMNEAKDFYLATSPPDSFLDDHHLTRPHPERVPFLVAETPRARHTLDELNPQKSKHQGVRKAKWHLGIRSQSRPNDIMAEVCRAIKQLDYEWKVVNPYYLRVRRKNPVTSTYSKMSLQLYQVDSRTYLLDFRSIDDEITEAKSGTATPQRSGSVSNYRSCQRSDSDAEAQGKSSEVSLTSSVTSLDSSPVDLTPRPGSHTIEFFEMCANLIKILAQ
Chain of Cyclin-dependent kinase 8 (P49336 whole entry): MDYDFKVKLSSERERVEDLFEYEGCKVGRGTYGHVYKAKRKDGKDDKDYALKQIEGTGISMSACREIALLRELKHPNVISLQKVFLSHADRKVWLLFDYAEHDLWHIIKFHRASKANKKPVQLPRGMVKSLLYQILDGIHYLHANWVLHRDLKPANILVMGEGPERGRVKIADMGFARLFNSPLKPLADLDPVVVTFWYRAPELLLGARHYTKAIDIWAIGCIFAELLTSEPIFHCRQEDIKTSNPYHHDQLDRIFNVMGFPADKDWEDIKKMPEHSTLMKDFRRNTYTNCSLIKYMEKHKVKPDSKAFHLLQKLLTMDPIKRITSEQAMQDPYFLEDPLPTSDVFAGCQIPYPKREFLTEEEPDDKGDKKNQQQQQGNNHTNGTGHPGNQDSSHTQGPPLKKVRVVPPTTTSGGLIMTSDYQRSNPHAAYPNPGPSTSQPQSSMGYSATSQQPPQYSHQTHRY
Chain of BDNF/NT-3 growth factors receptor (Q16620 whole entry): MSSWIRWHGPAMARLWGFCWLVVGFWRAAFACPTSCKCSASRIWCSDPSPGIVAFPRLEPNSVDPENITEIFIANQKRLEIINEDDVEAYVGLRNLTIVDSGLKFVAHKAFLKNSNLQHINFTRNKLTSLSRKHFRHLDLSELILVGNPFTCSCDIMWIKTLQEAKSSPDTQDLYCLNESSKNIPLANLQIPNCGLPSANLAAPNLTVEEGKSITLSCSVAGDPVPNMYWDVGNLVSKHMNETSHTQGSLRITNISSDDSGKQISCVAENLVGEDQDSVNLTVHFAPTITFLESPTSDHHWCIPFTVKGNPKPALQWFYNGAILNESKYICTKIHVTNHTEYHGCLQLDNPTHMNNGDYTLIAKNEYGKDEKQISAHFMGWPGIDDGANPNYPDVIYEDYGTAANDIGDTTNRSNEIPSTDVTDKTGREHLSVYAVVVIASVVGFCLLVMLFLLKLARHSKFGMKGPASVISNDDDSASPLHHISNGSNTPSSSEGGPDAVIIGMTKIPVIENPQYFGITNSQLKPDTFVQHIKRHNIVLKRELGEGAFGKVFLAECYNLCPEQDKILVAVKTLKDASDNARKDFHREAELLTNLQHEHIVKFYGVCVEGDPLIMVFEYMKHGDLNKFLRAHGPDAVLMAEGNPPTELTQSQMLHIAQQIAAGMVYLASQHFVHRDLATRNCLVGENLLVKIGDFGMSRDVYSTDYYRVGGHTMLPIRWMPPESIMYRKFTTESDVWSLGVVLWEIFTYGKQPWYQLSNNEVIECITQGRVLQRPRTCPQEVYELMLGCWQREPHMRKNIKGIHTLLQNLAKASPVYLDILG
Chain of Casein kinase I isoform alpha (P48729 whole entry, canonical isoform): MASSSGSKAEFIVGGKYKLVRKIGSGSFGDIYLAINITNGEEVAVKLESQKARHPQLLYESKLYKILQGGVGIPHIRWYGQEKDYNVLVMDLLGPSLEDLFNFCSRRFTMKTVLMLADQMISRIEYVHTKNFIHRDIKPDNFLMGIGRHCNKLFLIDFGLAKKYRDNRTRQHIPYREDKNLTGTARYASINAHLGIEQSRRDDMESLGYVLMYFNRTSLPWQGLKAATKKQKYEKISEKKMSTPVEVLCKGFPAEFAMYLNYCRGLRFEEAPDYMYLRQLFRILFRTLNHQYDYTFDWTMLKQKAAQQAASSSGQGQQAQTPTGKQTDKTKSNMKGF
Chain of Dual specificity mitogen-activated protein kinase kinase 2 (P36507 whole entry): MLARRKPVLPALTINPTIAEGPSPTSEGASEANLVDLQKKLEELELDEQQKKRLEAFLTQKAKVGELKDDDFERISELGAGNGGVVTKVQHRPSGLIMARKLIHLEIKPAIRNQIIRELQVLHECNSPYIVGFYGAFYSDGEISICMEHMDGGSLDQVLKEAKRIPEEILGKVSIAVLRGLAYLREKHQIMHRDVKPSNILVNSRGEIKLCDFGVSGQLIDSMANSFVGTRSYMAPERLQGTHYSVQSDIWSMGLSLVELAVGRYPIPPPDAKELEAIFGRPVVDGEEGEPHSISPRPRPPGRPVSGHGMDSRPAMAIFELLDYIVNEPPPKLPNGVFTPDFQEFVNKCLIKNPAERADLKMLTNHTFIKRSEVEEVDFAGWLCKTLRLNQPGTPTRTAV
Chain of Mitogen-activated protein kinase kinase kinase kinase 4 (O95819 whole entry): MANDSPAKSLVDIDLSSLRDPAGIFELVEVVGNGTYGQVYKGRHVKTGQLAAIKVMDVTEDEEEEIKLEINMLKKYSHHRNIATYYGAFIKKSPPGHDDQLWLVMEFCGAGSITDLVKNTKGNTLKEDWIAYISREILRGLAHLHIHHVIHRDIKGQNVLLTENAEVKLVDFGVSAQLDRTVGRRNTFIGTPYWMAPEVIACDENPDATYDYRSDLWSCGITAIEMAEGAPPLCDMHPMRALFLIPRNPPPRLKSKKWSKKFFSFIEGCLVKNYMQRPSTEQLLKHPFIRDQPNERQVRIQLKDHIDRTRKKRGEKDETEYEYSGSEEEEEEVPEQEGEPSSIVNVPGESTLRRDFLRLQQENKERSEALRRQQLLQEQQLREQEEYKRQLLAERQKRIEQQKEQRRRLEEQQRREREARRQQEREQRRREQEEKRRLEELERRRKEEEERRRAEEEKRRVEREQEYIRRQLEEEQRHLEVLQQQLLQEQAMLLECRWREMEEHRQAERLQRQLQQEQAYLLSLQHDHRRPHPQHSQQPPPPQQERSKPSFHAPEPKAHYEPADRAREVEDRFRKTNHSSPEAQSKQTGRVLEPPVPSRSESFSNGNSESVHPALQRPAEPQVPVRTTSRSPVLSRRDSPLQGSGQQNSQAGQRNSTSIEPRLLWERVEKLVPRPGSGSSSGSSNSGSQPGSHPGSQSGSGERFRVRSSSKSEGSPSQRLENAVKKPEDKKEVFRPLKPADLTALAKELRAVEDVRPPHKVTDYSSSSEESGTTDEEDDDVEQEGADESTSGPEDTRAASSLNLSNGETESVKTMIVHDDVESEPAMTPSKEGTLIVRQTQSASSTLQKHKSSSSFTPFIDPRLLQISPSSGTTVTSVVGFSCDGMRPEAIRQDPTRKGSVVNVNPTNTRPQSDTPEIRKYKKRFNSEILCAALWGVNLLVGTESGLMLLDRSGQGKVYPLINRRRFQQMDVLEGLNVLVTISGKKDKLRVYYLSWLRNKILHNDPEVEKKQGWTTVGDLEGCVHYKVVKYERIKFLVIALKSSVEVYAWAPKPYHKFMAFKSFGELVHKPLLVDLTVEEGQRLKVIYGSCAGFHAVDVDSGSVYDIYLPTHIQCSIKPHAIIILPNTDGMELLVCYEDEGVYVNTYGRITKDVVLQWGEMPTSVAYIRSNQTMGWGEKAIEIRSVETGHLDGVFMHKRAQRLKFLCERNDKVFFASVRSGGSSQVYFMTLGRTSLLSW

| Structure (SMILES) | EC50 [1] | AC50 (Caspase-6) | Ki [2] | Ki [3] | Ki [4] | Ki [5] | Ki [6] | Ki [7] | Ki [8] | Ki [9] | Ki [10] | Ki [11] | Ki (Activin receptor type-1) | Ki [12] | further results |
| --- | --- | --- | --- | --- | --- | --- | --- | --- | --- | --- | --- | --- | --- | --- | --- |
| CCN(CC)CCCC(C)n1c2nc(=O)[nH]c(=O)c-2nc2cc(Cl)ccc21 (stereo not drawn) | 32900 nM (inactive) | 305 nM (active) | – | – | – | – | – | – | – | – | – | – | – | – | – |
| OC1CCC(Nc2nc(Cl)cc(-c3c[nH]c4ncccc34)n2)CC1 (stereo not drawn) | – | – | > 2 nM (inactive) | 63.1 nM (active) | 398 nM (active) | 39.8 nM (active) | 0.794 nM (active) | 50.1 nM (active) | 31.6 nM (active) | > 3.16 nM (inactive) | 126 nM (active) | 63.1 nM (active) | 1260 nM (active) | 31.6 nM (active) | pKi [3]: 7.2; pKi [4]: 6.4; pKi [5]: 7.4; pKi [6]: 9.1; pKi [7]: 7.3; pKi [8]: 7.5; pKi [10]: 6.9; pKi [11]: 7.2; pKi (Activin receptor type-1): 5.9; pKi [12]: 7.5 |
| COc1cccc(CNC(=O)c2cnc(-c3ccncc3)nc2)c1 | – | – | > 2000 nM (inactive) | > 3980 nM (inactive) | > 3980 nM (inactive) | > 2510 nM (inactive) | > 3980 nM (inactive) | > 3980 nM (inactive) | 316 nM (active) | > 5010 nM (inactive) | > 3160 nM (inactive) | 2000 nM (active) | > 3980 nM (inactive) | > 3160 nM (inactive) | – |
| O=C(COC(=O)c1ccc([N+](=O)[O-])s1)Nc1ccc(F)cc1 | > 104000 nM (inactive) | 1960 nM (active) | – | – | – | – | – | – | – | – | – | – | – | – | – |
